Results as given in patent publication US20030171575A1, “Process for improving sucralose purity and yield” (priority 2002, published 2003).

Legend:
[1] = Blinded paired palatability panel, consumer product such as ice cream with 150 ppm sucralose (Example 5); format: in vivo, panelists; details: 150 ppm sucralose in consumer product such as ice cream, served chilled
Description: Purified sucralose is prepared by the process of solvent-solvent extraction and sequential recrystallizations as shown in Examples 1 and 2 of the present invention. Next, sucralose is used to enhance the palatability of a consumer product.
The sucralose is added to one group (1G) of two groups (1G and 2G) of a consumer product such as ice cream to yield final levels of 150 ppm sucralose.
Panelists are selected from the general population, and no specific demographic parameters are utilized in recruiting the panelists. The two groups of samples are prepared and served chilled. Portions are dispensed into individual servings for the panelists. Samples are presented to panelists in a blinded manner (samples are identified only by a random digit label). Each panelist receives two samples for tasting, and panelists are given a randomized sequence in which to taste the samples. Thus, the order of tasting is completely random. In each set of two samples, one sample is from G1 and the other sample is from G2. Panelists are asked to select the sample that tastes the most palatable, record that result and record how confident they are of the result. […]
Statistical significance of the correctness of the scores (i.e., panelist ability to detect the most palatable sample) is determined by use of a statistical table that correlates the number of correct responses with a p value.

[2] = background statement; cited from earlier work
[3] = Blinded three-sample taste panel, model soft drink with 100 ppm sucralose (Example 3); format: in vivo, panelists; details: 100 ppm sucralose in model soft drink (0.14% citric acid, 0.04% trisodium phosphate, pH 3.2), against samples without sucralose
Description: Purified sucralose is prepared by the process of solvent-solvent extraction and sequential recrystallizations as shown in Examples 1 and 2 of the present invention. Next the taste of the resultant composition is tested in a beverage.
(§1) Sucralose solutions are prepared by adding crystalline sucralose to a model soft drink composition that contains 0.14% citric acid and 0.04% trisodium phosphate. The pH of this composition is 3.2. Crystalline sucralose compositions are added to the soft drink composition to yield final levels of 100 parts per million (ppm).
(§2) Panelists are selected from the general population, and no specific demographic parameters are utilized in recruiting the panelists. The product samples are prepared and served chilled. Portions are dispensed into individual servings for the panelists. Samples are presented to panelists in a blinded manner (samples are identified only by a random digit label). Each panelist receives three samples for tasting (one sample comprising 100 ppm sucralose and two samples not comprising sucralose), and panelists are given a randomized sequence in which to taste the samples. […]
Statistical significance of the correctness of the scores (i.e. panelist ability to detect the sample that is different from the other two) is determined by use of a statistical table that correlates the number of correct responses with a p value.

[4] = Blinded three-sample taste panel, model soft drink with 10 ppm sucralose (Example 7); format: in vivo, panelists; details: 10 ppm sucralose in model soft drink (0.14% citric acid, 0.04% trisodium phosphate, pH 3.2)
Description: Purified sucralose is prepared by the process of solvent—solvent extraction and sequential recrystallizations as shown in Examples 1 and 2 of the present invention. Next, the effect on palatability of a beverage by purified sucralose is tested.
as §1, with “10 ppm sucralose.” for “100 parts per million (ppm).”
A model soft drink composition without sucralose is also prepared.
as §2, with “tasting,” for “tasting (one sample comprising 100 ppm sucralose and two samples not comprising sucralose),”
Statistical significance of the correctness of the scores (i.e., panelist ability to detect the sample that is different from the other two) is determined by use of a statistical table that correlates the number of correct responses with a p value.

Q: Which “palatability against samples not comprising sucralose” value [1] does the source give for `OC[C@H]1O[C@H](O[C@]2(CCl)O[C@H](CCl)[C@@H](O)[C@@H]2O)[C@H](O)[C@@H](O)[C@H]1Cl` [Sucralose, 4,1′,6′-trichloro-4,1′,6′-trideoxygalactosucrose] here?
A: more palatable

Q: What about the “sweetness intensity compared with sucrose” value [2] of the same molecule?
A: several hundred times

Q: What about the “palatability of the odd sample (comments of panelists choosing the correct sample)” value [3] of the same molecule?
A: increased palatability

Q: And the “palatability against samples not comprising sucralose” value [4]?
A: more palatable
